Data taken from patent US9968610B2, “Pyrrolopyrimidine derivatives as NR2B NMDA receptor antagonists” (Rugen Holdings (Cayman) Limited, priority 2014, dated 2018).

System: Rats
Assay: Electroconvulsive threshold (ECT) test
Assay type: in vivo, rat
Conditions: p.o. 60 minutes before ECS, theophylline 128 mg/kg, diazepam 16 mg/kg

Compound | pro- or anticonvulsant activity (electroconvulsive threshold)
CN1C(=O)CN=C(c2ccccc2)c2cc(Cl)ccc21 [diazepam] | expected pro- and anticonvulsant activities
Cn1c(=O)c2[nH]cnc2n(C)c1=O [theophylline, Theophylline] | expected pro- and anticonvulsant activities
